In PubChem BioAssay (NCI) one finds GI50 and TGI data, which are given here for nine compounds.

Several values for one entry are separate records, joined by “and”; a condition that tells them apart may be missing. Equal values may be shown once.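 These data come from cells grown in 96-well plates and exposed to compound for 48 hours at five concentrations. At the GI50, growth is halved. TGI denotes the concentration required for complete inhibition of growth.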

Experiment in all cases: DTP human tumour cell line panel, 48 h
Experiment [1] deals with HCT-116 colon.
In experiment [2] the test system is UACC-257 melanoma.
In experiment [3] the test system is HL-60(TB) leukemia.
For experiment [4], the system named is HCT-15 colon.
The subject of experiment [5] is SK-OV-3 ovarian.
Experiment [6] deals with NCI-H226 lung.
Experiment [7] deals with MDA-MB-231 breast.
Experiment [8] deals with LOX IMVI melanoma.
In experiment [9] the test system is EKVX NSCLC.
Experiment [10] has as its system OVCAR-4 ovarian.

With `O=C1NC(=O)[C@@H](c2cn3c4c(cccc24)CCC3)[C@@H]1c1c[nH]c2ccccc12`, the GI50 – broadly, the concentration at which growth is held to half of that of the control – is 0.377 µM and 0.458 µM in experiment [1]; 0.712 µM and 2.51 µM in experiment [2]; 0.348 µM and 0.35 µM in [3]; 0.338 µM and 0.505 µM in experiment [4]; 0.48 µM and 0.372 µM in experiment [5]; > 2.61 µM and 1.48 µM in experiment [6]. Besides, the GI50 was 0.632 µM and 1.19 µM in experiment [7]; 0.601 µM and 0.67 µM in experiment [8]; 0.482 µM and 0.991 µM in experiment [9]; 1.58 µM and 1.12 µM in experiment [10]. Moreover, the TGI – broadly, the concentration at which net growth stops – in [1] was > 6.16 µM and 10.6 µM; in experiment [2], > 10 µM and 29.8 µM; in experiment [3], > 4.06 µM and 6.88 µM; in [4], > 10 µM and 14.9 µM; in [5] it was > 10 µM and 12.2 µM; in experiment [6] it was > 10 µM and 17.9 µM. The TGI in [7] is 8.12 µM and 9.86 µM; in experiment [8], > 10 µM and 14.8 µM; in experiment [9] it was > 10 µM and 29.3 µM; in experiment [10], > 10 µM and 20.2 µM.

On to `CCOC(=O)c1[nH]c2cccc3c2c1CC(Br)C3=O` (stereo not drawn), for which the TGI in experiment [1] is 7.79 µM; in experiment [2], 28.6 µM; in experiment [3], 10.7 µM; in experiment [4], 18.8 µM; in experiment [5], 54.7 µM; in experiment [6], 37.2 µM. The TGI in experiment [7] is 33.6 µM; in experiment [8], 31.8 µM; in experiment [9], 32.2 µM.

As to `CCN(CC)c1ccc2[nH]c3c(C(N)=O)cc(=O)c(=O)c=3oc2c1`, the GI50 in experiment [1] is 0.281 µM; in experiment [2] it was 0.683 µM; in [3] it was 1.66 µM; in [4] it was 1.51 µM; in experiment [6], 2.49 µM; in experiment [7] it was 2.9 µM. Besides, the GI50 in experiment [8] is 0.581 µM; in [9], 2.79 µM; in experiment [10], 2.03 µM. Besides, the TGI is 1.04 µM in [1]; 3.25 µM in experiment [2]; 5.08 µM in [3]; greater than 100 µM in experiment [4]; 7.54 µM in [6]; greater than 100 µM in [7]. The TGI in [8] was 6.3 µM; in experiment [9], 15.7 µM; in experiment [10], 11.5 µM.

Consider `COc1cccc(-c2nc(-c3ccc(NS(=O)(=O)c4ccccc4)cc3)[nH]c2-c2ccnc(Br)c2)c1`, for which the GI50 was 2.09 µM in [1]; 3.11 µM in experiment [2]; 2.86 µM in experiment [3]; 3.04 µM in [5]; 2.91 µM in experiment [6]; 3.23 µM in experiment [7]. Also, the GI50 is 1.56 µM in experiment [8], 2.25 µM in [9] and 3.84 µM in experiment [10]. The TGI in experiment [1] is 5.46 µM; in experiment [2], 30.3 µM; in experiment [3], greater than 100 µM; in [5], greater than 100 µM; in experiment [6] it was greater than 100 µM; in [7], 45.8 µM. Further, the TGI in experiment [8] is 3.44 µM; in experiment [9], 9.06 µM; in experiment [10], greater than 100 µM.

Regarding `CN(C)CCCNC(=O)c1cc(NC(=O)c2cc(NC(=O)CCCN3c4ccccc4C=Cc4ccccc43)cn2C)cn1C`, the GI50 was 3.35 µM in experiment [1]; 4.5 µM in experiment [2]; 14.3 µM in experiment [3]; 25.7 µM in experiment [4]; 21.9 µM in experiment [5]; 19.4 µM in experiment [6]. Moreover, the GI50 in experiment [7] was 4.04 µM; in experiment [9], 17 µM; in experiment [10], 23.2 µM. In addition, the TGI is greater than 100 µM in [1]; 30.6 µM in experiment [2]; 41.4 µM in experiment [3]; 82.7 µM in experiment [4]; greater than 100 µM in experiment [5]; greater than 100 µM in experiment [6]. Also, the TGI in experiment [7] was 96 µM; in experiment [9], 71.3 µM; in experiment [10], 97.4 µM.

In the case of `COC(=O)C/C(C)=C/[C@@H](O)[C@H]1O[C@@H]2CC/C(Cl)=C/C/C=C(/C)[C@H](OC(C)=O)CC(=O)O[C@@H]1C2`, the GI50 was 3.22 µM in experiment [1]; 2.92 µM in [2]; 1.8 µM in experiment [3]; 8.01 µM in [4]; 4.76 µM in [6]; 4.07 µM in experiment [7]. Also, the GI50 in experiment [8] is 1.97 µM; in experiment [9], 4.93 µM. The TGI in [1] was 7.85 µM; in experiment [2], 7.92 µM; in experiment [3] it was 11.9 µM; in experiment [4], greater than 25 µM; in [6] it was 11.8 µM; in experiment [7] it was 11.8 µM. Also, the TGI was determined as 11.2 µM in [8] and 14.3 µM in experiment [9].

With `OCc1ccc(N(Cc2ccc(F)cc2)C2CCC2)cc1Cl`, the 50% growth inhibitory concentration (GI50) is 0.115 µM in [1]; 0.121 µM in experiment [2]; 5.7 µM in experiment [3]; 10.9 µM in [4]; 11 µM in experiment [5]; 0.0569 µM in experiment [6]. Besides, the figures for the GI50 in experiment [7], in experiment [8] and in experiment [10] were 14.9 µM, 15.1 µM and 0.207 µM, respectively. In addition, the TGI in experiment [1] worked out at 3.73 µM; in [2] it was 0.46 µM; in experiment [3], 25.5 µM; in experiment [4] it was 25.7 µM; in experiment [5], 23 µM; in experiment [6] it was 0.193 µM. Moreover, the TGI in experiment [7] came to 28.6 µM; in [8] it was 29.3 µM; in experiment [10], 2.69 µM.

In the case of `Cc1ccc2c(/C=C/C(=O)c3cc(CN4CCOCC4)c(O)c4nc(C)ccc34)cc(CN3CCOCC3)c(O)c2n1`, the GI50 in [1] is 0.412 µM; in [2] it was 2.62 µM; in experiment [3], 0.272 µM; in [4] it was 0.223 µM; in experiment [6], 1.24 µM; in experiment [7], 1.44 µM. Further, the GI50 in [8] is 0.454 µM; in experiment [9], 2.1 µM; in experiment [10] it was 0.637 µM. For the same compound, the TGI in experiment [1] was 3.41 µM; in [2], 13.6 µM; in [3] it was 0.677 µM; in [4] it was 3.33 µM; in [6] it was 4.13 µM; in experiment [7] it was 5.2 µM. In addition, the values for the concentration for total growth inhibition (TGI) in experiment [8], in experiment [9] and in [10] were 1.79 µM, 13.6 µM and 2.43 µM, respectively.

For the compound `Cc1cc(S(=O)(=O)Nc2nnc(-c3ccco3)c(-c3ccco3)n2)c(SCc2ccccc2)cc1Cl`, the GI50 in experiment [1] was 33.2 µM; in experiment [2] it was 25.9 µM; in experiment [3], 24.8 µM; in experiment [4], 21.1 µM; in [6], 22.4 µM; in experiment [7], 24.8 µM. The GI50 in experiment [8] is 24.7 µM; in experiment [9], 17.5 µM; in [10] it was 22 µM. In addition, the TGI in experiment [1] was greater than 100 µM; in [2], 67.6 µM; in [3] it was 83.1 µM; in experiment [4] it was 43.3 µM; in experiment [6], 69.9 µM; in [7], 47.6 µM. The figures for the concentration for total growth inhibition (TGI) in [8], in experiment [9] and in [10] were 45.4 µM, 37.6 µM and 41.6 µM, respectively.
